Bounds are passed on as bounds.

This note sets out measurements from patent US20230026856A1, “HETEROCYCLIC COMPOUNDS AND METHODS OF USE THEREOF” (SPARCBIO LLC, priority 2020, published 2023).

Assay [1] addresses T1, KRAS G12C protein (Homo sapiens, UniProt P01116, G12C). Description: Nucleotide exchange assay, Method I (BODIPY-GDP fluorescence, SOS1-mediated exchange of GDP for GTP). Format: biochemical. Particulars: 30 minutes incubation with KRAS G12C/BODIPY-GDP. On the procedure:
Method I. A biochemical assay to assess activity of test compounds in inhibiting SOS1-mediated exchange of GDP for GTP on the KRAS G12C protein was performed at Reaction Biology Corporation (Malvern, Pa., USA). In this assay, exchange of BODIPY-GDP to GTP results in the decrease in BODIPY-GDP fluorescence. Briefly, recombinant KRAS G12C protein (aa 2-169, prepared by Reaction Biology) was labelled with 5× excess of BODIPY-GDP. Excess BODIPY-GDP was separated from loaded protein using a gravity desalting column. Compounds were incubated with 0.15 μM KRAS G12C/BODIPY-GDP for 30 minutes. A mixture of GTP (25 μM) and SOS1 (70 nM; aa 564-1049, prepared by Reaction Biology) was added to the reaction to initiate the nucleotide exchange reaction. Reaction progress was monitored in real time (Ex/Em=(483/530)) in CLARIOstar (BMG LabTech). After signal normalization, the data were fitted using the “one phase exponential decay” model in GraphPad Prism and rate constants obtained. Rate constants were converted to % activity values which were fit to a 4-parameter sigmoidal dose-response curve in Prism to derive IC50 values for inhibition of exchange activity by test compounds.
Target sequence in this assay (P01116 2-169 isoform P01116-2 G12C): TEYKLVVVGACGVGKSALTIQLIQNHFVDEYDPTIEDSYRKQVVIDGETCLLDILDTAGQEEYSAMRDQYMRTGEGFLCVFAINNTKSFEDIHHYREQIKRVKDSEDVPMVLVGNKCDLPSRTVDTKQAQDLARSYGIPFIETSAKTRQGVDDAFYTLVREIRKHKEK

Assay [2] has as its target T1, KRAS G12C protein. The assay can be described thus: Nucleotide exchange assay, Method III (TR-FRET, association of KRAS G12C with Raf-RBD, SOS1-mediated exchange). Format: biochemical. Particulars: overnight (18 hr) incubation with GDP-bound KRAS G12C. Summed up: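 Compounds in 11-point 3-fold dilutions were preincubated 18 h at 23 °C with GDP-bound His-tagged KRAS G12C (25 nM in the 2× mix). SOS1/GTP was then added for 1 h at 23 °C, followed by FLAG-Raf-RBD with Tb-anti-FLAG/D2-anti-His for 2 h at room temperature. IC50 values came from non-linear regression of the TR-FRET signal.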
Target sequence in this assay (P01116 1-188 isoform P01116-2 G12C): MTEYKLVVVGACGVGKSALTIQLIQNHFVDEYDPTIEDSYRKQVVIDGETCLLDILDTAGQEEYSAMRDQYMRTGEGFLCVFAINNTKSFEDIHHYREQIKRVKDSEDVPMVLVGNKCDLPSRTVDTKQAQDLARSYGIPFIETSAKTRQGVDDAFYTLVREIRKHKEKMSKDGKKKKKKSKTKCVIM
(Time-resolved FRET reads energy transfer from a long-lived donor to a nearby acceptor.)

The next assay relates to A549. The assay can be described thus: Cell proliferation assay panel (Cell Titer-Glo), A549. Format: cell-based. To be noted: Homo sapiens, 72 hr. The protocol: (§1) Potency of compounds was determined in cell proliferation assays in a panel of cancer cell lines. Cells were seeded in 384-well plates (Corning, Cat. #3765) at specified densities in 40 μL of culture medium and incubated overnight at 37° C. in a 5% CO2 incubator (culture conditions). With a robotic dispenser, serially diluted test compounds were added in a volume of 20 nL DMSO to wells in the culture plate to achieve the final desired concentrations of test compounds, and the cells were further incubated in culture conditions for 72 hr. The assay was terminated by addition of 25 μL of Cell Titer-Glo reagent (Promega, Madison, Wis.) to each well. Contents were mixed, the plate was incubated for 10 min at room temperature and luminescence was measured. The IC50 value of each test compound was calculated with XLFit curve fitting software. Results are shown in Table 4. ‘+++’ indicates IC50 values ≤300 nM, ‘++’ indicates IC50 values between 300 nM-3 μM, and ‘+’ indicates IC50 values ≥3 μM.
Background: ATP-based viability assays read luminescence as a measure of living cells.

Another assay has as its system KYSE-410. The assay can be described thus: Cell proliferation assay panel (Cell Titer-Glo), KYSE-410. Format: cell-based. To be noted: Homo sapiens, 72 hr. On the procedure: as §1
For a further assay, the system named is MIA PaCa-2. Description: Cell proliferation assay panel (Cell Titer-Glo), MIA PaCa-2. The class given is cell-based. Particulars: Homo sapiens, MIA PaCa-2, 72 h. The protocol:
as §1

Another assay has as its system NCI-H2122. Description: Cell proliferation assay panel (Cell Titer-Glo), NCI-H2122. Format: cell-based. Particulars: Homo sapiens, 72 hr. On the procedure:
as §1

Another assay relates to NCI-H358. The assay can be described thus: Cell proliferation assay panel (Cell Titer-Glo), NCI-H358. The class given is cell-based. Particulars: Homo sapiens, 72 hr. On the procedure:
as §1

A further assay relates to NCI-H1373. Description: Cell proliferation assay panel (Cell Titer-Glo), NCI-H1373. Format: cell-based. Particulars: Homo sapiens, 72 hr. The protocol: as §1
In a further assay the test system is NCI-H2030. Description: Cell proliferation assay panel (Cell Titer-Glo), NCI-H2030. The class given is cell-based. To be noted: Homo sapiens, 72 hr. The protocol: as §1
The next assay has as its system SW1573. Description: Cell proliferation assay panel (Cell Titer-Glo), SW1573. Format: cell-based. To be noted: Homo sapiens, 72 hr. The protocol: as §1
A further assay deals with NCI-H358 cells. Description: 3D cell proliferation assay (Cell Titer-Glo 3D). Particulars: Homo sapiens, NCI-H358, 168 h, NCI-H358, 3D (ultra-low attachment); 7 days. The class given is cell-based. On the procedure:
NCI-H358 cells (ATCC® CRL-5807™) were plated in a 384-well Black/Clear Round Bottom Ultra-Low Attachment Microplate (Corning) in medium (RPMI-1640+10% FBS) at a density of 1000 cells in 50 μL per well, then incubated overnight at 37° C. and 5% CO2. Cells were treated with test compounds at 9 concentrations within a specified concentration range (e.g., 0.5 nM-10 μM) for generation of dose response curves. Test compounds were prepared by 1:3 serial dilution in DMSO from a specified starting concentration (e.g., 20 μM, 2 μM or 0.2 μM) and then added to wells of the assay plate in a total volume of 150 nL DMSO. The cells were further incubated at 37° C. and 5% CO2 for 7 days. Cell viability was assessed by adding 40 μL of Cell Titer-Glo® 3D reagent (Cat. No.: G9683, Promega) to each well and reading luminescence after mixing and incubation of the samples. The IC50 value of each test compound was calculated with XLFit curve fitting software.

In assay [3] the test system is Phosphorylation of ERK in NCI-H358 cells. Description: pERK assay, Method II (homogeneous TR-FRET, phospho-ERK Thr202/Tyr204). The class given is cell-based. To be noted: Homo sapiens, 4 hr compound treatment. The protocol:
Method II. Phosphorylation of ERK was assessed by a homogeneous TR-FRET assay (Advanced phospho-ERK (Thr202/Tyr204) cellular kit; Cat. #64AERPEH, Cisbio). In brief, NCI-H358 cells were seeded in a 384-well culture plate at a density of 6000 cells in 40 μL medium/well and grown overnight at 37° C. and 5% CO2. Each test compound was dosed in duplicate in a 10-dose 3-fold titration starting at 10 μM or 2 μM. The culture plate was then incubated for 4 hr in the incubator. At the end of the compound treatment, the medium was removed, 35 μL of lysis buffer was added to each well, and the plate was agitated on a plate shaker for 40 mins at 4° C. An antibody cocktail of phospho-ERK1/2 Eu Cryptate antibody and Phospho-ERK1/2 d2 antibody was prepared by separately diluting the antibodies 20-fold with detection buffer and then mixing them together. 3.4 μL of antibody cocktail was dispensed to each well of an empty 384-well white ProxiPlus assay plate (Perkin Elmer), and the plate briefly centrifuged. 13.6 μL of cell lysate was then added to the antibody-containing wells, and the plate was briefly centrifuged and then incubated 2 hr at room temperature. The plate was read on a fluorescence plate reader (Envision2104, Perkin Elmer), with an excitation wavelength of 337 nm and emission wavelengths of 615 nm and 665 nm. The IC50 value of each test compound was calculated with XLFit curve fitting software. Results are shown in Table 6. ‘+++’ indicates IC50 values ≤300 nM, ‘++’ indicates IC50 values between 300 nM-3 μM, and ‘+’ indicates IC50 values ≥3 μM.

Usually IC50 stands for the midpoint of a concentration-inhibition curve. Regarding `C=CC(=O)N1CCC(n2c(=O)c(=O)n(-c3c(C)ccnc3C(C)C)c3nc(-c4c(O)cccc4F)c(F)cc32)CC1` (single isomer, unassigned) [1 (Isomer A), 1-(1-acryloylpiperidin-4-yl)-7-fluoro-6-(2-fluoro-6-hydroxyphenyl)-4-(2-isopropyl-4-methylpyridin-3-yl)-1,4-dihydropyrido[2,3-b]pyrazine-2,3-dione], the IC50 against KRAS G12C protein [1] and against KRAS G12C protein [2] was 300 to 3000 nM in each case.
`C=CC(=O)N1CCC(n2c(=O)c(=O)n(-c3c(C)ccnc3C(C)C)c3nc(-c4c(O)cccc4F)c(F)cc32)CC1` (single isomer, unassigned) [1 (Isomer B), 1-(1-acryloylpiperidin-4-yl)-7-fluoro-6-(2-fluoro-6-hydroxyphenyl)-4-(2-isopropyl-4-methylpyridin-3-yl)-1,4-dihydropyrido[2,3-b]pyrazine-2,3-dione]: on KRAS G12C protein [1], the IC50 was ≥ 3000 nM.
On to `C=CC(=O)N1CCN(c2c(C(=O)NC)c(=O)n(-c3c(C)ccnc3C(C)C)c3nc(-c4c(O)cccc4F)c(F)cc23)CC1` (single isomer, unassigned) [84 (Isomer B), 4-(4-acryloylpiperazin-1-yl)-6-fluoro-7-(2-fluoro-6-hydroxyphenyl)-1-(2-isopropyl-4-methylpyridin-3-yl)-N-methyl-2-oxo-1,2-dihydro-1,8-naphthyridine-3-carboxamide], for which the IC50 is ≥ 3000 nM with A549; ≥ 3000 nM in the assay with KYSE-410; 300 to 3000 nM in the assay on MIA PaCa-2; ≥ 3000 nM with NCI-H2122; ≤ 300 nM with NCI-H358; ≥ 3000 nM in the assay on NCI-H1373. Besides, the IC50 in the assay on NCI-H2030 and in the assay with SW1573 was ≥ 3000 nM throughout.
Turning to `C=CC(=O)N1CCN(c2c(S(C)(=O)=O)c(=O)n(-c3c(C)ccnc3C(C)C)c3nc(-c4c(O)cccc4F)c(F)cc23)CC1` (single isomer, unassigned) [123 (Isomer A), 4-(4-acryloylpiperazin-1-yl)-6-fluoro-7-(2-fluoro-6-hydroxyphenyl)-1-(2-isopropyl-4-methylpyridin-3-yl)-3-(methylsulfonyl)-1,8-naphthyridin-2(1H)-one], the IC50 against KRAS G12C protein [2] is ≤ 300 nM; with A549 it was ≥ 3000 nM; with KYSE-410, ≥ 3000 nM; in the assay with MIA PaCa-2, 300 to 3000 nM; with NCI-H2122, 300 to 3000 nM; in the assay on NCI-H358, ≤ 300 nM. For the same compound, the half-maximal inhibitory concentration (IC50) was ≥ 3000 nM in the assay on NCI-H1373; 300 to 3000 nM with NCI-H2030; ≥ 3000 nM in the assay on SW1573; ≤ 100 nM with NCI-H358 cells; ≤ 300 nM in [3].
Regarding `C=CC(=O)N1CCN(c2c(C(=O)NCC)c(=O)n(-c3c(C)ccnc3C(C)C)c3nc(-c4c(O)cccc4F)c(F)cc23)CC1` (single isomer, unassigned) [293 (Isomer A), 4-(4-acryloylpiperazin-1-yl)-N-ethyl-6-fluoro-7-(2-fluoro-6-hydroxyphenyl)-1-(2-isopropyl-4-methylpyridin-3-yl)-2-oxo-1,2-dihydro-1,8-naphthyridine-3-carboxamide], the IC50 is ≤ 300 nM against KRAS G12C protein [2], 300 to 3000 nM with MIA PaCa-2, ≤ 100 nM in the assay on NCI-H358 cells and 300 to 3000 nM in assay [3].
